Assays:
[1] = target: recombinant Heliothis virescens PMCA; assay: PMCA activity assay, luciferase-luciferin luminescence measurement of remaining ATP; format: biochemical
Experimental: The assay for PMCA is based on the use of the luciferase-luciferin luminescence reaction to measure ATP. PMCA hydrolyzes ATP in the presence of Ca^2+and the ATP that remains is measured. Membrane vesicles from Sf9 cells expressing recombinant Heliothis virescens PMCA are provided with the assay.
The assay protocol is designed for a 384-well microtiter plate format, but other multi-well formats or other formats may also be used. The reaction is started by the addition of the PMCA enzyme. The negative control reactions contain eosin, an inhibitor of PMCA. Reaction mixtures are incubated at room temperature (22-24° C.) for 60 minutes, followed by the addition of the luciferase-luciferin mix. The plates are immediately read for luminescence.
The luciferin-luciferase readout measures the concentration of ATP in reaction mixtures. Light emission by the luciferase is proportional to the concentration of ATP when its value is less than 0.010 mM. PMCA consumes ATP in a Ca^2+-dependent hydrolysis reaction. […]
A volume of 0.005 mL of the HI solution increasing concentrations of eosin was placed in the wells of a 384-well microtiter plate, and a volume of 0.020 mL of the H2 solution was added. […] A volume of 0.035 mL of the H4 reaction mixture was then added to each well of the plate and the luminescence was measured. The decrease in relative light units (RLU) in reaction time t=60 minutes was measured. […]

PMCA = assay: pyruvate kinase/lactate dehydrogenase-coupled assay that measures ADP formation; format: biochemical, Heliothis virescens; settings: fit to simple hyperbolic equation; decrease in absorbance at 340 nm; PMCA 0.20 mg/mL; FIG. 3; read-out: K1/2 for ATP, PMCA reaction rate
Experimental: The PMCA reaction rate is dependent on the ATP concentration. The K1/2 for ATP was measured using a pyruvate kinase/lactate dehydrogenase-coupled assay that measures ADP formation. The final concentrations of PMCA and ATP were […]. The rates of decrease in absorbance at 340 nm were measured for each concentration of ATP. The line gives the fit to a simple hyperbolic equation with K1/2=0.013 mM and amplitude=0.022 OD/min. Vmax =50.0 nmol.min^−1.mg^−1. was obtained for PMCA activity under the conditions described.

## O=C1OC2(c3ccccc31)c1cc(Br)c(O)c(Br)c1Oc1c2cc(Br)c(O)c1Br [eosin, reference compound]
[1]; membrane vesicles from Sf9 cells, room temperature (22-24° C.), 60 minutes, FIG. 5, read-out: IC50 of inhibition of PMCA activity (rates of ATP consumption)
  IC50: 12 nM

## Nc1ncnc2c1ncn2[C@@H]1O[C@H](COP(=O)(O)OP(=O)(O)OP(=O)(O)O)[C@@H](O)[C@H]1O [ATP]
PMCA
  Km: 13 µM

## [Ca+2] [Ca^2+]
[1]; fit to simple hyperbolic equation, rates of decrease in RLU, ATP 0.010 mM, PMCA 0.010 mg/mL, FIG. 4
  K1/2 for Ca2+, PMCA reaction rate: 1.5 µM
